Results as given in the kinase profiling compilation of Christmann-Franck et al. (2016).

Assays:
Assay in all cases: radiometric filter-binding kinase assay, Kinase HotSpot
Details in all cases: compound 0.5 µM; ATP 10 µM
ACVR1 (human) = ACVR1 (human) (UniProt Q04771)
ACVRL1 (human) = ACVRL1 (human) (UniProt P37023)
BMX (human) = BMX (human) (UniProt P51813)
BTK (human) = BTK (human) (UniProt Q06187)
CAMKK1 (human) = CAMKK1 (human) (UniProt Q8N5S9)
CDC42BPB (human) = CDC42BPB (human) (UniProt Q9Y5S2)
CDK4 CCND3 (human) = CDK4 CCND3 (human) (UniProt P30281+P11802)
CLK1 (human) = CLK1 (human) (UniProt P49759)
CSNK1E (human) = CSNK1E (human) (UniProt P49674)
DCLK2 (human) = DCLK2 (human) (UniProt Q8N568)
DDR2 (human) = DDR2 (human) (UniProt Q16832)
DYRK1B (human) = DYRK1B (human) (UniProt Q9Y463)
EPHB4 (human) = EPHB4 (human) (UniProt P54760)
FES (human) = FES (human) (UniProt P07332)
FLT3 (human) = FLT3 (human) (UniProt P36888)
GSG2 (human) = GSG2 (human) (UniProt Q8TF76)
INSR (human) = INSR (human) (UniProt P06213)
JAK3 JH1 JH2 (human) = JAK3 JH1 JH2 (human) (UniProt P52333)
LCK (human) = LCK (human) (UniProt P06239)
MAP3K14 (human) = MAP3K14 (human) (UniProt Q99558)
MAPK13 (human) = MAPK13 (human) (UniProt O15264)
MKNK2 (human) = MKNK2 (human) (UniProt Q9HBH9)
MYLK2 (human) = MYLK2 (human) (UniProt Q9H1R3)
NEK11 (human) = NEK11 (human) (UniProt Q8NG66)
NEK9 (human) = NEK9 (human) (UniProt Q8TD19)
PAK2 (human) = PAK2 (human) (UniProt Q13177)
PASK (human) = PASK (human) (UniProt Q96RG2)
PHKG2 (human) = PHKG2 (human) (UniProt P15735)
PIM1 (human) = PIM1 (human) (UniProt P11309)
PLK1 (human) = PLK1 (human) (UniProt P53350)
PRKCA (human) = PRKCA (human) (UniProt P17252)
PRKCE (human) = PRKCE (human) (UniProt Q02156)
PRKCH (human) = PRKCH (human) (UniProt P24723)
PRKCZ (human) = PRKCZ (human) (UniProt Q05513)
PTK6 (human) = PTK6 (human) (UniProt Q13882)
RET (human) = RET (human) (UniProt P07949)
RPS6KA4 KD2 (human) = RPS6KA4 KD2 (human) (UniProt O75676)
RPS6KB2 (human) = RPS6KB2 (human) (UniProt Q9UBS0)
SRPK3 (human) = SRPK3 (human) (UniProt Q9UPE1)
STK17A (human) = STK17A (human) (UniProt Q9UEE5)
STK25 (human) = STK25 (human) (UniProt O00506)
ULK2 (human) = ULK2 (human) (UniProt Q8IYT8)

RET (human), sequence (P07949 whole entry, looked up): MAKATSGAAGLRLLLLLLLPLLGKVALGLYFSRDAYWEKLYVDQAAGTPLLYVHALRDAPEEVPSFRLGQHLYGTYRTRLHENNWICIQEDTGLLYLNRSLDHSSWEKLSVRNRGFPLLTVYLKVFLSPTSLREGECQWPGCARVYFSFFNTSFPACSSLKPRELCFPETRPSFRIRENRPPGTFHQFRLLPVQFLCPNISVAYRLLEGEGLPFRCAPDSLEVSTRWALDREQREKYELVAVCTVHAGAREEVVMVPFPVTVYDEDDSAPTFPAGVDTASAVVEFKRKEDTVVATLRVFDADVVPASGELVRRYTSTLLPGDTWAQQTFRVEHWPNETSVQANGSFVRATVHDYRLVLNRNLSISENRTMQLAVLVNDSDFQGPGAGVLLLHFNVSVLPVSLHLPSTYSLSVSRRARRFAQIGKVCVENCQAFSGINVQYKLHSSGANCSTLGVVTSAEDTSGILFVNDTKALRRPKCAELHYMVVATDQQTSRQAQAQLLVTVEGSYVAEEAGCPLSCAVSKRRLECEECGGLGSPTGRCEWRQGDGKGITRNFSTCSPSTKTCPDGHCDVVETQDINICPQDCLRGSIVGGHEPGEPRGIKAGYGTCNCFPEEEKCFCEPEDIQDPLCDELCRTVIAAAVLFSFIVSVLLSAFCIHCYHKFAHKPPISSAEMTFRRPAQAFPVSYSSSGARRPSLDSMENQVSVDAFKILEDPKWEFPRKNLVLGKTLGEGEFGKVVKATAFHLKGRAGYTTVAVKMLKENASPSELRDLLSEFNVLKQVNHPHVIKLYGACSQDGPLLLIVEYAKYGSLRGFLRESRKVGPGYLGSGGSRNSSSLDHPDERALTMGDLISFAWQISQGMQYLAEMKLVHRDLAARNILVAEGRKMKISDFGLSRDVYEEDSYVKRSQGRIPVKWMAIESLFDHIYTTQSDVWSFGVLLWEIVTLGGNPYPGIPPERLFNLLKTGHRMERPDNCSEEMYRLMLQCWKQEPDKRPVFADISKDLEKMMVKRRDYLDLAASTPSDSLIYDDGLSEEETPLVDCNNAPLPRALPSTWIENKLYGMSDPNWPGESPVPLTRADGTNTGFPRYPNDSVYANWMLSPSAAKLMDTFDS
PHKG2 (human), sequence (P15735 whole entry, looked up): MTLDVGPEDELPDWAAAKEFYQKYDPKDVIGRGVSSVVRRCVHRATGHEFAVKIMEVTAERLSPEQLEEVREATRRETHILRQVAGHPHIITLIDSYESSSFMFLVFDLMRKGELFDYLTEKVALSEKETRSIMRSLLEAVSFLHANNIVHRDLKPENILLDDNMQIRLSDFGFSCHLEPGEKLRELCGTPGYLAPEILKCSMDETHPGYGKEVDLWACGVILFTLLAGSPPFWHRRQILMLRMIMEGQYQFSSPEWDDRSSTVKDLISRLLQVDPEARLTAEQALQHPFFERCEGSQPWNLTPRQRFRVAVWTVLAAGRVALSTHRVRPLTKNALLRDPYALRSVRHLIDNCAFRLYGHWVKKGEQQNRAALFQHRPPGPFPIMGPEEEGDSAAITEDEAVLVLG
FLT3 (human), sequence (P36888 whole entry, looked up): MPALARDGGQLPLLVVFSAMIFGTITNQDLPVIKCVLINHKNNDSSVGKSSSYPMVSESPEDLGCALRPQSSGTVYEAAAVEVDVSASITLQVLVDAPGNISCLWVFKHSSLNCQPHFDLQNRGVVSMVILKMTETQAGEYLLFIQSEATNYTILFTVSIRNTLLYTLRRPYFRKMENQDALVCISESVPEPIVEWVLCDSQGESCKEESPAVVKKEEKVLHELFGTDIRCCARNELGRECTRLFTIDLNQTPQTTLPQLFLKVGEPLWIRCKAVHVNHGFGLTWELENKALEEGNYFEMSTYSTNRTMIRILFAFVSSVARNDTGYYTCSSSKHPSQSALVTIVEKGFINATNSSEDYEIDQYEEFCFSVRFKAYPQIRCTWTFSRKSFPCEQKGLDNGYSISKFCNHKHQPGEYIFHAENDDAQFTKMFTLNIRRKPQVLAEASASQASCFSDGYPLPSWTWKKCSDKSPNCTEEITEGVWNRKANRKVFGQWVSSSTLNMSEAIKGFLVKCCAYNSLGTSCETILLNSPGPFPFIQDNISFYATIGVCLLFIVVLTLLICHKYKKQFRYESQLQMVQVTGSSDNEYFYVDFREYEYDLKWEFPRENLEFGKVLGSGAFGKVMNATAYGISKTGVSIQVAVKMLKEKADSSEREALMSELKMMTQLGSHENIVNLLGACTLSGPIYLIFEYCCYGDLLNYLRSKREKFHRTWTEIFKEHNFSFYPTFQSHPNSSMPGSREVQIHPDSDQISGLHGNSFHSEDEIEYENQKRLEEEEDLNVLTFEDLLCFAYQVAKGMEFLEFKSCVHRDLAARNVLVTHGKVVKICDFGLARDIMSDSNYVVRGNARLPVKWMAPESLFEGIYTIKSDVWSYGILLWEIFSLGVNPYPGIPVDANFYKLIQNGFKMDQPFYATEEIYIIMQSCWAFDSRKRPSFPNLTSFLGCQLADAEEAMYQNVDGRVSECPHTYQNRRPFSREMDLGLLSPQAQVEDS
PAK2 (human), sequence (Q13177 whole entry, looked up): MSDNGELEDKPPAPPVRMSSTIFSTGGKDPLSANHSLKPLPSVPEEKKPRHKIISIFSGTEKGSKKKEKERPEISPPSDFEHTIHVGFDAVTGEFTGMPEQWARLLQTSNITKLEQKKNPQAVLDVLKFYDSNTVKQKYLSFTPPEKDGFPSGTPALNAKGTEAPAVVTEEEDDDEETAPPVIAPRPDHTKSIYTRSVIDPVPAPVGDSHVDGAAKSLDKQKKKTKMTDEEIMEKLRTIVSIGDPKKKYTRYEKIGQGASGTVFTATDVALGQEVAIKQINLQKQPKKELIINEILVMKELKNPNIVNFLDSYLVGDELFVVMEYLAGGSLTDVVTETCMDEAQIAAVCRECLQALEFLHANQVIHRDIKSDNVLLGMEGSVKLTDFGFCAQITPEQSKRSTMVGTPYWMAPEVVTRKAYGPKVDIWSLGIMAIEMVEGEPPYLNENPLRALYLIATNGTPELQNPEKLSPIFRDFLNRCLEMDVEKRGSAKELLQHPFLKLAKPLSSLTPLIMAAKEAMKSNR
PASK (human), sequence (Q96RG2 whole entry, looked up): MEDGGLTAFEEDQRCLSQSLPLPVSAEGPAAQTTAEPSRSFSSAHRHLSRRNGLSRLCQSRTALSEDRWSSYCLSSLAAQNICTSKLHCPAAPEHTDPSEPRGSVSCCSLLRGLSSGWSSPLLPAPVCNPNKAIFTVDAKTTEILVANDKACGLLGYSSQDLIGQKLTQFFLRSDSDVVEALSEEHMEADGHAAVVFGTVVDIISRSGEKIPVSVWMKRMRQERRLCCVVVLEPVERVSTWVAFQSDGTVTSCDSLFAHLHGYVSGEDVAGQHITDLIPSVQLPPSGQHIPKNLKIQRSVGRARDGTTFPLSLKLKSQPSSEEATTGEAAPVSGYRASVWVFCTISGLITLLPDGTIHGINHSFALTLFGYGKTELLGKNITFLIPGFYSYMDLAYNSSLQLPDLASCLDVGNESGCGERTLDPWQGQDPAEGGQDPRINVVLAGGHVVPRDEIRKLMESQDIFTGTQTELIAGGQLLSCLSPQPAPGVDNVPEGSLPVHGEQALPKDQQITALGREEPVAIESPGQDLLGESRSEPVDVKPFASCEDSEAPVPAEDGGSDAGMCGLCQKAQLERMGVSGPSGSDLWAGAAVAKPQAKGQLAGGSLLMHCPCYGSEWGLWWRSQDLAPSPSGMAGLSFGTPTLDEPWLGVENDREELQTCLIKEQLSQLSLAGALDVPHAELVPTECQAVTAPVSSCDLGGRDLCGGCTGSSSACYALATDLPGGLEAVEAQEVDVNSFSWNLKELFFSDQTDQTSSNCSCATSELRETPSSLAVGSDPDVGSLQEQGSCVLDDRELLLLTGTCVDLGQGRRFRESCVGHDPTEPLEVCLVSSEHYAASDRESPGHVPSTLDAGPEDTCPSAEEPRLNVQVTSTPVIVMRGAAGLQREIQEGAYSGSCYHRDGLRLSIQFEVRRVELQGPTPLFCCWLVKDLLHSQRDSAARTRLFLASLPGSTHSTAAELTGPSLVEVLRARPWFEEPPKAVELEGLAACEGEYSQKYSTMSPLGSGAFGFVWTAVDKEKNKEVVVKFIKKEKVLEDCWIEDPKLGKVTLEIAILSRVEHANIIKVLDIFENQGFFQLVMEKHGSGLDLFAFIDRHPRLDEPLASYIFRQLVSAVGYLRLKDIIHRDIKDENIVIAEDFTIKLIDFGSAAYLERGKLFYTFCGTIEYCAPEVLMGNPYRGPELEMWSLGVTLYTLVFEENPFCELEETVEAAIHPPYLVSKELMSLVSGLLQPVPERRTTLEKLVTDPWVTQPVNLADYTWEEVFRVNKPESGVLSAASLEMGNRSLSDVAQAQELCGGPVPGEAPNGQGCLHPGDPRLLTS
PIM1 (human), sequence (P11309 whole entry, looked up): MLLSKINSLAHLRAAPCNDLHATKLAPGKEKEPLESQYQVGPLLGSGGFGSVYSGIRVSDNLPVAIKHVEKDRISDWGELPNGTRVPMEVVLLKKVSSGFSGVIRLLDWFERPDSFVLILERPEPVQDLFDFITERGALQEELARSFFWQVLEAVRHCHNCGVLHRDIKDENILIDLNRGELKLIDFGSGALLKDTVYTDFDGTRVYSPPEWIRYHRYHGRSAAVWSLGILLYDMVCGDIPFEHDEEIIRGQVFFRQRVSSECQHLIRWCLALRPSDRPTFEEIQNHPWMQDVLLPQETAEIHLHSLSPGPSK
MAPK13 (human), sequence (O15264 whole entry, looked up): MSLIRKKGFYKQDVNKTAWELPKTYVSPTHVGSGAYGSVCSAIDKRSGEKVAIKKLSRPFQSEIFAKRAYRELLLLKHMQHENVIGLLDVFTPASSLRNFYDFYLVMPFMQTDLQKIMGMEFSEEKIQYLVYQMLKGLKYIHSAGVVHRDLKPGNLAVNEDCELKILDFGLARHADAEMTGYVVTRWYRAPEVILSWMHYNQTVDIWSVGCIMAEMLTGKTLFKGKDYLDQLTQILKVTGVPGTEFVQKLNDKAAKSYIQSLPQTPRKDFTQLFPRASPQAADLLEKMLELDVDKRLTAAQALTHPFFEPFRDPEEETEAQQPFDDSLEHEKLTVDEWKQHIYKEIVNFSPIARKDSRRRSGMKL

COc1cc2nccc(Oc3ccc(NC(=S)NC(=O)c4ccccc4C)cc3)c2cc1OC
residual activity (ACVR1 (human)): 93.5%
residual activity (ACVRL1 (human)): 91.7%
residual activity (BMX (human)): 30.6%
residual activity (BTK (human)): 28.4%
residual activity (CAMKK1 (human)): 91.2%
residual activity (CDC42BPB (human)): 90.5%
residual activity (CDK4 CCND3 (human)): 93.4%
residual activity (CLK1 (human)): 89.9%
residual activity (CSNK1E (human)): 95.1%
residual activity (DCLK2 (human)): 91.5%
residual activity (DDR2 (human)): 54.1%
residual activity (DYRK1B (human)): 110%
residual activity (EPHB4 (human)): 103%
residual activity (FES (human)): 96.7%
residual activity (FLT3 (human)): 46.6%
residual activity (GSG2 (human)): 95.9%
residual activity (INSR (human)): 100%
residual activity (JAK3 JH1 JH2 (human)): 96.6%
residual activity (LCK (human)): 1.62%
residual activity (MAP3K14 (human)): 106%
residual activity (MAPK13 (human)): 101%
residual activity (MKNK2 (human)): 94.3%
residual activity (MYLK2 (human)): 26.8%
residual activity (NEK11 (human)): 96.7%
residual activity (NEK9 (human)): 103%
residual activity (PAK2 (human)): 91.2%
residual activity (PASK (human)): 93.6%
residual activity (PHKG2 (human)): 110%
residual activity (PIM1 (human)): 97.6%
residual activity (PLK1 (human)): 97.9%
residual activity (PRKCA (human)): 91.3%
residual activity (PRKCE (human)): 99.7%
residual activity (PRKCH (human)): 95.1%
residual activity (PRKCZ (human)): 96.9%
residual activity (PTK6 (human)): 33.9%
residual activity (RET (human)): 86.7%
residual activity (RPS6KA4 KD2 (human)): 99.7%
residual activity (RPS6KB2 (human)): 97.3%
residual activity (SRPK3 (human)): 95.9%
residual activity (STK17A (human)): 82.3%
residual activity (STK25 (human)): 103%
residual activity (ULK2 (human)): 88.8%

Cc1cc2ncc(-c3ccccc3)nc2cc1C
residual activity (ACVR1 (human)): 91.8%
residual activity (ACVRL1 (human)): 97.9%
residual activity (BMX (human)): 90%
residual activity (BTK (human)): 94.8%
residual activity (CAMKK1 (human)): 98%
residual activity (CDC42BPB (human)): 101%
residual activity (CDK4 CCND3 (human)): 94.6%
residual activity (CLK1 (human)): 95.4%
residual activity (CSNK1E (human)): 85.5%
residual activity (DCLK2 (human)): 100%
residual activity (DDR2 (human)): 95.7%
residual activity (DYRK1B (human)): 106%
residual activity (EPHB4 (human)): 95.6%
residual activity (FES (human)): 97.3%
residual activity (FLT3 (human)): 53.6%
residual activity (GSG2 (human)): 91.5%
residual activity (INSR (human)): 94%
residual activity (JAK3 JH1 JH2 (human)): 101%
residual activity (LCK (human)): 99.5%
residual activity (MAP3K14 (human)): 112%
residual activity (MAPK13 (human)): 107%
residual activity (MKNK2 (human)): 94.8%
residual activity (MYLK2 (human)): 99.7%
residual activity (NEK11 (human)): 104%
residual activity (NEK9 (human)): 93.1%
residual activity (PAK2 (human)): 99.3%
residual activity (PASK (human)): 82.1%
residual activity (PHKG2 (human)): 83.9%
residual activity (PIM1 (human)): 101%
residual activity (PLK1 (human)): 101%
residual activity (PRKCA (human)): 90.5%
residual activity (PRKCE (human)): 99.6%
residual activity (PRKCH (human)): 100%
residual activity (PRKCZ (human)): 88.6%
residual activity (PTK6 (human)): 93.6%
residual activity (RET (human)): 88%
residual activity (RPS6KA4 KD2 (human)): 99.4%
residual activity (RPS6KB2 (human)): 98.7%
residual activity (SRPK3 (human)): 91.4%
residual activity (STK17A (human)): 80%
residual activity (STK25 (human)): 92.5%
residual activity (ULK2 (human)): 108%
